Assay results taken from US5457105A, “Quinazoline derivatives useful for treatment of neoplastic disease” (Zeneca Limited, priority 1992, dated 1995).

Legend:
receptor tyrosine kinase = biological target: T1, receptor tyrosine kinase (Homo sapiens, UniProt P00533); experiment: Test (a): in vitro inhibition of the enzyme receptor tyrosine kinase (from A-431 cells); format: biochemical; details: EGF, 25° C., 10 minutes
T1 construct: obtained in partially purified form from A-431 cells; endogenous in cells; host or cells: A-431 cells (human vulval carcinoma); detergent-solubilised membrane fraction
Procedure: (a) An in vitro assay which determines the ability of a test compound to inhibit the enzyme receptor tyrosine kinase. Receptor tyrosine kinase was obtained in partially purified form from A-431 cells (derived from human vulval carcinoma) by procedures related to those described by Carpenter et al., J. Biol. Chem., 1979, 254, 4884, Cohen et al., J. Biol. Chem., 1982, 257, 1523 and by Braun et al., J. Biol. Chem., 1984, 259, 2051.
A-431 cells were grown to confluence using Dulbecco's modified Eagle's medium (DMEM) containing 5% fetal calf serum (FCS). The obtained cells were homogenised in a hypotonic borate/EDTA buffer at pH 10.1. The homogenate was centrifuged at 400 g for 10 minutes at 0°-4° C. The supernatant was centrifuged at 25,000 g for 30 minutes at 0°-4° C. The pelleted material was suspended in 30 mM Hepes buffer at pH 7.4 containing 5% glycerol, 4 mM benzamidine and 1% Triton X-100, stirred for 1 hour at 0°-4° C., and recentrifuged at 100,000 g for 1 hour at 0°-4° C. The supernatant, containing solubilised receptor tyrosine kinase, was stored in liquid nitrogen.
For test purposes 40 μl of the enzyme solution so obtained was added to a mixture of 400 μl of a mixture of 150 mM Hepes buffer at pH 7.4, 500 μM sodium orthovanadate, 0.1% Triton X-100, 10% glycerol, 200 μl water, 80 μl of 25 mM DTT and 80 µl of a mixture of 12.5 mM manganese chloride, 125 mM magnesium chloride and distilled water. There was thus obtained the test enzyme solution.
Each test compound was dissolved in dimethylsulphoxide (DMSO) to give a 50 mM solution which was diluted with 40 mM Hepes buffer containing 0.1% Triton X-100, 10% glycerol and 10% DMSO to give a 500 μM solution. Equal volumes of this solution and a solution of epidermal growth factor (EGF; 20 μg/ml) were mixed.
[γ-^32 P]ATP (3000 Ci/mM, 250 μCi) was diluted to a volume of 2 ml by the addition of a solution of ATP (100 μM) in distilled water. An equal volume of a 4 mg/ml solution of the peptide Arg-Arg-Leu-Ile-Glu-Asp-Ala-Glu-Tyr-Ala-Ala-Arg-Gly in a mixture of 40 mM Hepes buffer at pH 7.4, 0.1% Triton X-100 and 10% glycerol was added.
The test compound/EGF mixture solution (5 μl) was added to the test enzyme solution (10 μl) and the mixture was incubated at 0°-4° C. for 30 minutes. The ATP/peptide mixture (10 μl) was added and the mixture was incubated at 25° C. for 10 minutes. The phosphorylation reaction was terminated by the addition of 5% trichloroacetic acid (40 μl) and bovine serum albumin (BSA; 1 mg/ml, 5 μl). The mixture was allowed to stand at 4° C. for 30 minutes and then centrifuged. […] Radioactivity present in the filter paper was measured using a liquid scintillation counter (Sequence A). […]
The extent of inhibition was then determined at a range of concentrations of test compound to give an IC50 value.

[1] = tested on: human naso-pharyngeal cancer cell line KB; experiment: Test (b): in vitro inhibition of growth of the human naso-pharyngeal cancer cell line KB; format: cell-based; details: KB cells, EGF (10 ng/ml), 3 days, MTT
Procedure: (b) An in vitro assay which determines the ability of a test compound to inhibit the growth of the human naso-pharyngeal cancer cell line KB.
KB cells were seeded into wells at a density of 1×10^4 -1.5×10^4 cells per well and grown for 24 hours in DMEM supplemented with 5% FCS (charcoal-stripped). Cell growth was determined after incubation for 3 days by the extent of metabolism of MTT tetrazolium dye to furnish a bluish colour. Cell growth was then determined in the presence of EGF (10 ng/ml) or in the presence of EGF (10 ng/ml) and a test compound at a range of concentrations. An IC50 value could then be calculated.

[2] = tested on: liver hepatocyte growth caused by the administration of the growth factor TGFα; experiment: Test (c): in vivo inhibition of TGFα-stimulated liver hepatocyte growth in male rats; design: species or system rat; details: usually orally, TGFα 400 μg/kg subcutaneously, inhibition of BrdU uptake, approximate ED50
Procedure: Cell-growth in the control and test animals is determined as follows: On the morning of the day after the dosing of the test compound (or 0.5% polysorbate in the control group), the animals are dosed with bromodeoxyuridine (BrdU; 100 mg/kg intraperitoneally). The animals are killed four hours later and the livers are excised. […] Further tests were carried out using a range of doses of the test compounds to allow the calculation of an approximate ED50 value for the inhibition of liver hepatocyte proliferation as determined by inhibition of the uptake of BrdU.

[3] = tested on: human mammary carcinoma which expresses epidermal growth factor (EGF) receptor tyrosine kinase; details: athymic nude mice; EGF receptor tyrosine kinase expressing; Toi et al. 1990; cited from earlier work
[4] = tested on: another carcinoma which does not express EGF receptor tyrosine kinase; details: carcinoma not expressing EGF receptor tyrosine kinase; Toi et al. 1990; cited from earlier work

T1 sequence (P00533 25-1210): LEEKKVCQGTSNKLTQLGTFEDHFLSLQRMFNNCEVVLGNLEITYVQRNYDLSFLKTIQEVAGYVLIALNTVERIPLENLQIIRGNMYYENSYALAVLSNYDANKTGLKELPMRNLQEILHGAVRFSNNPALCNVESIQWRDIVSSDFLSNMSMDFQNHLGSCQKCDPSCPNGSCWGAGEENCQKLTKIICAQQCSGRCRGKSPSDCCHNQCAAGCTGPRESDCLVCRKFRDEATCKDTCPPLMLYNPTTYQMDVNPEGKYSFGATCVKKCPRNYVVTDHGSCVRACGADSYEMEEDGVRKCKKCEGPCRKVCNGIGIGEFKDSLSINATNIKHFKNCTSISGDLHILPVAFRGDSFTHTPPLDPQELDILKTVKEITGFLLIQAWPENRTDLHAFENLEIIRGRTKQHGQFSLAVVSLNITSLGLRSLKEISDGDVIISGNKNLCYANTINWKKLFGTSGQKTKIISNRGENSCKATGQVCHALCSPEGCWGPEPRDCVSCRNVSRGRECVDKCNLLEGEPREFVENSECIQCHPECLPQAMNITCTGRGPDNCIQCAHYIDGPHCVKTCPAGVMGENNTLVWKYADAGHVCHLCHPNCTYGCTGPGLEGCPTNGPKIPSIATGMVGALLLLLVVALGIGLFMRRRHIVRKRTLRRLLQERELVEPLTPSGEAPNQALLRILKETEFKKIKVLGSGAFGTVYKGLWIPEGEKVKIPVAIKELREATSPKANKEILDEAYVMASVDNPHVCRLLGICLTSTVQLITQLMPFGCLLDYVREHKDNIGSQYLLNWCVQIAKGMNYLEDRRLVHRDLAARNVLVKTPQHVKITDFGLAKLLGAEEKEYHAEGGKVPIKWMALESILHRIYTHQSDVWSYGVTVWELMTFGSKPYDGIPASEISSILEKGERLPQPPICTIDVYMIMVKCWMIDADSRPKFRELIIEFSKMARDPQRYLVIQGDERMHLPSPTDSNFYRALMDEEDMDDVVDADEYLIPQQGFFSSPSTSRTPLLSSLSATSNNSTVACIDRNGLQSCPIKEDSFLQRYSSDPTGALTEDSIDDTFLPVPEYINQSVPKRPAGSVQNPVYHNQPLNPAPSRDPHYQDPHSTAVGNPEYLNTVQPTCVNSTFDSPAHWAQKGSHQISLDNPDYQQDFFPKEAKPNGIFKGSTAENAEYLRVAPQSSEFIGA

## COc1cc2ncnc(Nc3cccc(C)c3)c2cc1OC [6,7-dimethoxy-4-(3'-methylanilino)quinazoline]
Receptor tyrosine kinase
  IC50: 5 nM
[1]; Homo sapiens, 72 h
  IC50: 50 nM
[2]; Rattus norvegicus, Hepatocyte, po
  ED50: < 5 mg/kg

## COc1cc2ncnc(Nc3cccc(C(F)(F)F)c3)c2cc1OC [6,7-dimethoxy-4-(3'-trifluoromethylanilino)quinazoline]
Receptor tyrosine kinase
  IC50: 10 nM
[1]; Homo sapiens, 72 h
  IC50: 300 nM

## Cc1cccc(Nc2ncnc3ccc(N)cc23)c1 [6-amino-4-(3'-methylanilino)quinazoline]
[1]
  IC50: 1000 nM
[2]
  ED50 in Test (c): < 5 mg/kg

## O=CN/C=C/c1cc(O)ccc1O [erbstatin]
[3]
  growth of transplanted human mammary carcinoma: specifically attenuates the growth
[4]
  growth of another carcinoma: without effect

## CC(=O)Nc1ccc2ncnc(Nc3cccc(C)c3)c2c1 [6-acetamido-4-(3'-methylanilino)quinazoline]
Receptor tyrosine kinase
  IC50: 10 nM
[1]; Homo sapiens, 72 h
  IC50: 650 nM

## COc1cc2c(Nc3cccc(C)c3)ncnc2cc1OCCO [7-(2-hydroxyethoxy)-6-methoxy-4-(3'-methylanilino)quinazoline]
Receptor tyrosine kinase
  IC50: 5 nM
[1]; Homo sapiens, 72 h
  IC50: 140 nM
